# Measured values from US6476076B1 (priority 1999, dated 2002).
# Where two headings read alike, the source gives them in different places.
# Legend:
# [1] = target: T1, CAP-activated channels in cultured neonatal rat dorsal root ganglion (DRG) neurons (Rattus norvegicus, UniProt O35433); format: cell-based; design: key: + = CAP; ++ = 10 CAP; +++ = 100 CAP
# T1 construct: extracellular application of the compounds to cultured neonatal rat dorsal root ganglion (DRG) neurons; endogenous in cells; host or cells: primary cultured DRG neurons from 1 or 2 day old neonatal rats
# T1 sequence (O35433 whole entry): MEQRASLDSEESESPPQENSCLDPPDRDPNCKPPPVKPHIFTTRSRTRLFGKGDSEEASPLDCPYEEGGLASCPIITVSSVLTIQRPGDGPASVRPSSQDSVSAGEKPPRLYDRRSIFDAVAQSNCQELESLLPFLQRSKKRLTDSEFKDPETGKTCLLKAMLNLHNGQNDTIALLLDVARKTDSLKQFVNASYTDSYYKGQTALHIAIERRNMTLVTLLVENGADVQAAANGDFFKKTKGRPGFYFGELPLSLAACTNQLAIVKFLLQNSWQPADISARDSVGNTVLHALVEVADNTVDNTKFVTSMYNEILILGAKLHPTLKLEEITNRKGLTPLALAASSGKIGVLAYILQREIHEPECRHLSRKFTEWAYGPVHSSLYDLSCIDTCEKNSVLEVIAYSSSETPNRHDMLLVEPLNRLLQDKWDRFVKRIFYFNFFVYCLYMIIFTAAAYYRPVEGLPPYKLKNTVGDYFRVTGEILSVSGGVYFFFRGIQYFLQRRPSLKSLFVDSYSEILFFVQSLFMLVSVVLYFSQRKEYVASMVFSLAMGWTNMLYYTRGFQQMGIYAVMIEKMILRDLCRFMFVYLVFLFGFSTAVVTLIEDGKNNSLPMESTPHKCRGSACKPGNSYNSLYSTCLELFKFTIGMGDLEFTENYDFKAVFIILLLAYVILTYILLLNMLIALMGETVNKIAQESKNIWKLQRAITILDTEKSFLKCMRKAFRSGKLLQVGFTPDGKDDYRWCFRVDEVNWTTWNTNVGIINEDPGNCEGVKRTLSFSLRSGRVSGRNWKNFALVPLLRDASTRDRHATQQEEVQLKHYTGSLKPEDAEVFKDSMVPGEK
# [2] = test system: PBQ-induced writhing in ICR mice; assay: animal or person; format: in vivo, mouse; conditions: for Relative Potency (Writhing Test) / Writhing Test ED50: mouse, in vivo; for Writhing Test ED50 / ED50: ip; for ED50: Mus musculus, read-out: Writhing Test ED50
# [3] = test system: TPA-induced ear edema in ICR mice; conditions: mouse, in vivo
# [4] = target: T2, vanilloid receptor (rat spinal cord membrane preparations) (Rattus norvegicus, UniProt O35433); assay: biochemical; format: binding
# T2 construct: determined on membrane preparations from rat spinal cord; from tissue; host or cells: rat spinal cord membranes
# T2 sequence (O35433 whole entry): as above
# [5] = test system: rat eye (eye-wiping response); conditions: in vivo
Molecule,Activations [1],Relative Potency (Writhing Test) [2],Writhing Test ED50 [2] [mg/kg],Ear Edema Assay ID50 [3] [μg/ear],Relative Potency (Ear Edema Assay) [3],Ki ([4]; read-out: Affinities (Ki)) [µM],Ki [4] [µM],ED50 [2] [mg/kg],% Reduction of response to 0.001% capsaicin [5]
2-Benzyl-3-{[(4-hydroxy-3-methoxybenzyl)amino]carbothioyl}propyl Pivalate [7a-I],+++,150,0.002,25,0.12,,,,
2-(4-Chlorobenzyl)-3-{[(4-hydroxy-3-methoxybenzyl)amino]carbothioyl}propyl Pivalate [7c-I],++,60,0.005,22,0.14,0.0544,,,
2-(4-Chlorobenzyl)-3-{[(4-hydroxy-3-methoxybenzyl)amino]carbothioyl}propyl Benzoate [7c-V],++,25,0.012,17,0.18,,,,
COCOc1ccc(CNC(=S)NCC(COC(=O)C(C)(C)C)Cc2ccccc2)cc1OC (stereo not drawn) [compound 10],++,,,,,,0.146,,
"COc1cc(CNC(=S)NCC(COC(=O)C(C)C)Cc2ccccc2)ccc1O (stereo not drawn) [7a-II, 2-Benzyl-3-{[(4-hydroxy-3-methoxybenzyl)amino]carbothioyl}propyl 2-Methyl Propanoate]",+++,20,,,,,0.133,0.015,
"COc1ccc2c(c1)c(CC(=O)O)c(C)n2C(=O)c1ccc(Cl)cc1 [Indomethacin, reference compound]",,0.75,,,,,,0.4,
"CC(=O)Oc1ccccc1C(=O)O [Aspirin, reference compound]",,0.086,,,,,,3.5,
"COc1cc(CNC(=S)NCC(COCc2ccccc2)Cc2ccc(Cl)cc2)ccc1O (stereo not drawn) [9c, N-[3-Benzyloxy-2-(4-chlorobenzyl)propyl]-N′-(4-hydroxy-3-methoxybenzyl)thiourea]",++,,,,,,0.659,,
COCOc1ccc(CNC(=S)NCC(COC(=O)C(C)(C)C)Cc2ccc(C)c(C)c2)cc1OC (stereo not drawn) [7b-Ia],,,,,,,0.876,,
(S)-2-Benzyl-3-{[(4-hydroxy-3-methoxybenzyl)amino]carbothioyl}propyl Pivalate [(S)-7a-I],++,33,0.009,,,,,,
2-Benzyl-3-{[(4-hydroxy-3-methoxybenzyl)amino]carbothioyl}propyl Stearate [7a-IV],+,15,0.02,,,1.87,,,
"COc1cc(CNC(=S)NCC(COCc2ccccc2)Cc2ccccc2)ccc1O (stereo not drawn) [9a, N-[2-Benzyl-3-(benzyloxy)propyl]-N′-(4-hydroxy-3-methoxybenzyl)thiourea]",++,,,,,,0.148,,
COc1cc(CNC(=S)NC[C@H](COC(=O)C(C)(C)C)Cc2ccccc2)ccc1O [(R)-7a-I],+++,38,,,,,0.0184,0.008,
2-Benzyl-3-{[(4-hydroxy-3-methoxybenzyl)amino]carbothioyl}propyl Hexanoate [7a-III],++,60,0.005,,,0.632,,,
"CN1CC[C@]23c4c5ccc(O)c4O[C@H]2[C@@H](O)C=C[C@H]3[C@H]1C5 [Morphine, reference compound]",,0.3,,,,,,1,
2-Benzyl-3-{[(4-hydroxy-3-methoxybenzyl)amino]carbothioyl}propyl Benzoate [7a-V],++,15,0.02,20,0.15,,,,0 (0.1) %
